Data taken from patent US11878975B2, “Substituted indole compounds useful as TLR inhibitors” (BRISTOL-MYERS SQUIBB COMPANY, priority 2017, dated 2024).
pIC50: −log10 of the molar value.

Columns and labels:
Format in all cases: cell-based
human TLR7 = target: T1, human TLR7 (Homo sapiens, UniProt Q9NYK1); assay: TLR7 inhibition reporter assay (HEK-Blue cells, SEAP reporter, gardiquimod stimulation); settings: HEK-Blue cells overexpressing human TLR7, SEAP reporter, gardiquimod 7.5 μM
T1 construct: host or cells: HEK-Blue cells
T1 sequence (Q9NYK1 27-1049): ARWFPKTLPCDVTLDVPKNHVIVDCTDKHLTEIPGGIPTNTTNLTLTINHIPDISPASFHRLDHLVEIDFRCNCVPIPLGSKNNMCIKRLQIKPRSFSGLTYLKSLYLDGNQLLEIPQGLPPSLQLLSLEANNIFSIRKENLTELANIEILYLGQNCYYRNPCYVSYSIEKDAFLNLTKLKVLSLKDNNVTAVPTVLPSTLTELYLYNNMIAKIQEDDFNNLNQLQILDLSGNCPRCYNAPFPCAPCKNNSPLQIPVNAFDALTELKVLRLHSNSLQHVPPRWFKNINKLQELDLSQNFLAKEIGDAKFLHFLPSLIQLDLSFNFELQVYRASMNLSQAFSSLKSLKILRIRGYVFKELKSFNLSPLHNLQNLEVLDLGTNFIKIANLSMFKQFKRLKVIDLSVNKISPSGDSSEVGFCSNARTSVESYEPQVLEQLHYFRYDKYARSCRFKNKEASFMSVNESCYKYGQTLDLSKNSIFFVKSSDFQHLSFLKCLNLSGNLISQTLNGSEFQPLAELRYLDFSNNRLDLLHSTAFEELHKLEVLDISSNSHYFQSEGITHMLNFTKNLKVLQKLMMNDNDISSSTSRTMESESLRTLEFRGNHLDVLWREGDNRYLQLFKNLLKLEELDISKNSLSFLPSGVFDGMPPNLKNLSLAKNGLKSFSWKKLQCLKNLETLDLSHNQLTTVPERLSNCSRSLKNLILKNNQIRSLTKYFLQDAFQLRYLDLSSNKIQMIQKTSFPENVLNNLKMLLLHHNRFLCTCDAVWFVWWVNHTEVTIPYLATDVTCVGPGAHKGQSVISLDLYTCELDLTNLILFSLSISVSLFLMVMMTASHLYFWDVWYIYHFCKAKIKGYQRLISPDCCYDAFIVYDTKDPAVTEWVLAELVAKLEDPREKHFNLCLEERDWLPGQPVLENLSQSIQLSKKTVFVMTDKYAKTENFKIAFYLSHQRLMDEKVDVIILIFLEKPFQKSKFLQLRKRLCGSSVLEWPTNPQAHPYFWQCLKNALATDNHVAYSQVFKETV
Summary of the method: (§1)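 Dose range 0.05 nM–50 μM; 30 min preincubation, RT. Agonists: TLR7 gardiquimod 7.5 μM, TLR8 R848 15.9 μM, TLR9 ODN2006 5 nM. 22 h, 37 °C, 5% CO2. SEAP (IFN-β minimal promoter with NF-κB/AP-1 sites) via colorimetric detection medium; % inhibition vs agonist+DMSO and reference-inhibitor wells.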

human TLR8 = target: T2, human TLR8 (Homo sapiens, UniProt Q9NR97); assay: TLR8 inhibition reporter assay (HEK-Blue cells, SEAP reporter, R848 stimulation); settings: HEK-Blue cells overexpressing human TLR8, SEAP reporter, R848 15.9 μM
T2 construct: host or cells: HEK-Blue cells
T2 sequence (Q9NR97 27-1041): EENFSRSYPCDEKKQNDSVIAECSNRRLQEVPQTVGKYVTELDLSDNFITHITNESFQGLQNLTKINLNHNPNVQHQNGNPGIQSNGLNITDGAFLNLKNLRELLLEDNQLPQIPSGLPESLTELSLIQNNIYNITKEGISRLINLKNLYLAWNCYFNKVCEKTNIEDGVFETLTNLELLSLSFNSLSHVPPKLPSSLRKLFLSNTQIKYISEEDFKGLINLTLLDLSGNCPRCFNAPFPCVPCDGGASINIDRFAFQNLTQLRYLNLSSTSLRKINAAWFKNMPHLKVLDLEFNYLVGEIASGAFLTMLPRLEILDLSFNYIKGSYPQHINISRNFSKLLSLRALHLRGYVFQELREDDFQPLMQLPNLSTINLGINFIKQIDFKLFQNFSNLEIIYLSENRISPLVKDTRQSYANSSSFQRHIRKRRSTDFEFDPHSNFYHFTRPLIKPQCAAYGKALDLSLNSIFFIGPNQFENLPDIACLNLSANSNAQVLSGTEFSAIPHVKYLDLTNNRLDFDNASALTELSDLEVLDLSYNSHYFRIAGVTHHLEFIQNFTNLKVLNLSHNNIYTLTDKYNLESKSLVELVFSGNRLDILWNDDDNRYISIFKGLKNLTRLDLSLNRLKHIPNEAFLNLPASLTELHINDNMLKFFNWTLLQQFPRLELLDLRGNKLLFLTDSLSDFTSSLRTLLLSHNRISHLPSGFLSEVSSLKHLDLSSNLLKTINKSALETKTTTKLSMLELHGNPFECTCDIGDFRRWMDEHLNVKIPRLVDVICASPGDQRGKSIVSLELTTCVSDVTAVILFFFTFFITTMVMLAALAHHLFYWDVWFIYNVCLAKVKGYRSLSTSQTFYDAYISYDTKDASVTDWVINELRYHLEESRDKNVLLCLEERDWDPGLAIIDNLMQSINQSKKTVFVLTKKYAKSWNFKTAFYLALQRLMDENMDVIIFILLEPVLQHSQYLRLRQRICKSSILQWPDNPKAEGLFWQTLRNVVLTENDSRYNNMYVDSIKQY
Summary of the method: as §1

human TLR9 = target: T3, human TLR9 (Homo sapiens, UniProt Q9NR96); assay: TLR9 inhibition reporter assay (HEK-Blue cells, SEAP reporter, ODN2006 stimulation); settings: HEK-Blue cells overexpressing human TLR9, SEAP reporter, ODN2006 5 nM
T3 construct: host or cells: HEK-Blue cells
T3 sequence (Q9NR96 26-1032): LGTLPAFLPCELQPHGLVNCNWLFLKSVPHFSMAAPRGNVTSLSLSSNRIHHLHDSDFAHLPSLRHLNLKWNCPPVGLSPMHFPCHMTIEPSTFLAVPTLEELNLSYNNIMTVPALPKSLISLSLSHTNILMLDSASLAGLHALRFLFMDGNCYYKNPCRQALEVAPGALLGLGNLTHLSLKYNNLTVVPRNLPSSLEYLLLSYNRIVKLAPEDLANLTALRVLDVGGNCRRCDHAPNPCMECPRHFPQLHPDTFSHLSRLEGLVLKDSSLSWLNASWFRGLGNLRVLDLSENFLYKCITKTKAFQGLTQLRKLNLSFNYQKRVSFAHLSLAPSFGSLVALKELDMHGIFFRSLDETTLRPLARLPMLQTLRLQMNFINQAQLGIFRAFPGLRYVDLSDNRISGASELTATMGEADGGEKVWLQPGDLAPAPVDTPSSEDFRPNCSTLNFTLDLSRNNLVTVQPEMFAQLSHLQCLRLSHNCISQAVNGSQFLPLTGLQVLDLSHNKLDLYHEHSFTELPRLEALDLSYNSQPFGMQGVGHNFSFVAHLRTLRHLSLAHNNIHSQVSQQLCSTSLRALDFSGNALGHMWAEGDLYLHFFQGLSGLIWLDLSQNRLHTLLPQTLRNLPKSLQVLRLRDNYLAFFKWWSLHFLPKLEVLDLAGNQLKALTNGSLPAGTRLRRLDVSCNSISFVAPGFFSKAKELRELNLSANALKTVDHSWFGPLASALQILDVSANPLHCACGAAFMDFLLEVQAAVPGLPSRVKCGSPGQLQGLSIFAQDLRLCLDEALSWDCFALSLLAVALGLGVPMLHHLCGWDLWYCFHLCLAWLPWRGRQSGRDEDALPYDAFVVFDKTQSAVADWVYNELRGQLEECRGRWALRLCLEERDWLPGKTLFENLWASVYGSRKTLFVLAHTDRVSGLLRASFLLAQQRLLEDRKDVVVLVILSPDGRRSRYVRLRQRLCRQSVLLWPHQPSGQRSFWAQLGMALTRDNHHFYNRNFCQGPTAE
Summary of the method: as §1

SMILES | pIC50 (human TLR7) | pIC50 (human TLR8) | pIC50 (human TLR9)
CNCC(=O)N1CC(c2ccc3[nH]c(-c4cc(OC)c5ncnn5c4)c(C(C)C)c3c2)C1 [Example 268] | 9.14 | 8.23 | 6.40
Cc1cc(-c2[nH]c3ccc(C4CN(C5CCOC(C)(C)C5)C4)cc3c2C(C)C)cn2ncnc12 (stereo not drawn) [Example 269, 6-(5-(1-(2,2-dimethyltetrahydro-2H-pyran-4-yl)azetidin-3-yl)-3-isopropyl-1H-indol-2-yl)-8-methyl-[1,2,4]triazolo[1,5-a]pyridine] | 8.30 | 8.08 | 5.44
Cc1cc(-c2[nH]c3ccc(C4CN(C5CCS(=O)(=O)CC5)C4)cc3c2C(C)C)cc(C)n1 [Example 270] | 7.85 | 7.70 | 6.05
Cc1cc(-c2[nH]c3ccc(C4CN(C5COC5)C4)cc3c2C(C)C)cn2ncnc12 [Example 271] | 8.30 | 7.66 | 4.54
COc1cc(-c2[nH]c3ccc(C4CN(C(C)C)C4)cc3c2C(C)C)cn2ncnc12 [Example 272] | 9.08 | 8.68 | 5.88
COc1cc(-c2[nH]c3ccc(C4CN(C)C4)cc3c2C(C)C)cn2ncnc12 [Example 273] | 7.55 | 7.01 | 5.28
COc1cc(-c2[nH]c3ccc(C4CN(C5COC5)C4)cc3c2C(C)C)cn2ncnc12 [Example 274] | 9.00 | 8.57 | 5.41
COc1ccc(-c2[nH]c3ccc(C4CCC5CC(C4)N5)cc3c2C(C)C)cc1OC (stereo not drawn) [Example 279, 3-(2-(3.4-dimethoxyphenyl)-3-isopropyl-1H-indol-5-yl)-7-azabicyclo[4.1.1]octane] | 7.43 | 7.14 | 5.50
Cc1cc(-c2[nH]c3ccc(C4CNCCO4)cc3c2C(C)C)cn2ncnc12 (stereo not drawn) [Example 281, 2-(3-isopropyl-2-(8-methyl-[1,2,4]triazolo[1,5-a]pyridin-6-yl)-1H-indol-5-yl)morpholine] | 9.42 | 8.96 | 5.40
Cc1cc(-c2[nH]c3ccc(C4CNCCO4)cc3c2C(C)C)cn2ncnc12 (stereo not drawn) [Example 282] | 9.18 | 9.00 | 5.42
Cc1cc(-c2[nH]c3ccc(C4CNCCO4)cc3c2C(C)C)cn2ncnc12 (stereo not drawn) [Example 283] | 9.02 | 8.89 | 5.57
COc1cc(-c2[nH]c3ccc(C4CNCCO4)cc3c2C(C)C)cn2ncnc12 (stereo not drawn) [Example 284] | 9.00 | 9.07 | 5.74
COc1cc(-c2[nH]c3ccc(C4CNCCO4)cc3c2C(C)C)cn2ncnc12 (stereo not drawn) [Example 285] | 9.37 | 9.25 | 6.02
Cc1c(-c2[nH]c3ccc(C4CNCCO4)cc3c2C(C)C)cn2ncnc2c1C (stereo not drawn) [Example 286] | 9.00 | 9.14 | 5.27
Cc1c(-c2[nH]c3ccc(C4CNCCO4)cc3c2C(C)C)cn2ncnc2c1C (stereo not drawn) [Example 287] | 9.15 | 9.21 | 5.59
Cc1c(-c2[nH]c3ccc(C4CNCCO4)cc3c2C(C)C)cn2ncnc2c1C (stereo not drawn) [Example 288] | 9.21 | 9.28 | 5.50
Cc1cc(-c2[nH]c3ccc(C4CN(C5COC5)CCO4)cc3c2C(C)C)cn2ncnc12 (stereo not drawn) [Example 289, 2-(3-isopropyl-2-(8-methyl-[1,2,4]triazolo[1,5-a]pyridin-6-yl)-1H-indol-5-yl)-4-(oxetan-3-yl)morpholine] | 8.05 | 7.62 | < 4.30
Cc1cc(-c2[nH]c3ccc(C4CN(C5COC5)CCO4)cc3c2C(C)C)cn2ncnc12 (stereo not drawn) [Example 290] | 7.44 | 6.75 | < 4.30
Cc1cc(-c2[nH]c3ccc(C4CN(CC5(C)COC5)CCO4)cc3c2C(C)C)cn2ncnc12 (stereo not drawn) [Example 291] | 7.70 | 7.59 | < 4.30
Cc1cc(-c2[nH]c3ccc(C4CN(CC5(C)COC5)CCO4)cc3c2C(C)C)cn2ncnc12 (stereo not drawn) [Example 292] | 7.66 | 8.55 | 4.47
Cc1cc(-c2[nH]c3ccc(C4CN(C)CCO4)cc3c2C(C)C)cn2ncnc12 (stereo not drawn) [Example 293] | 8.70 | 8.96 | 5.00
Cc1cc(-c2[nH]c3ccc(C4CN(C)CCO4)cc3c2C(C)C)cn2ncnc12 (stereo not drawn) [Example 296] | 8.52 | 8.20 | 5.08
Cc1cc(-c2[nH]c3ccc(C4CN(C)CCO4)cc3c2C(C)C)cn2ncnc12 (stereo not drawn) [Example 297] | 8.70 | 9.21 | 5.18
COc1cc(-c2[nH]c3ccc(C4CN(C)CCO4)cc3c2C(C)C)cn2ncnc12 (stereo not drawn) [Example 299] | 8.70 | 8.48 | 5.25
COc1cc(-c2[nH]c3ccc(C4CN(C(C)C)CCO4)cc3c2C(C)C)cn2ncnc12 (stereo not drawn) [Example 300] | 8.70 | 8.19 | 5.60
